Measurements reported in patent EP0678100B1, “SYNTHETIC AMPHIPATHIC PEPTIDES WITH ANTIMICROBIAL ACTIVITY” (PIONEER HI-BRED INTERNATIONAL, INC., priority 1993, dated 1998).
In brackets after ≈: the same amount, converted by molar mass. Read-outs that look alike come from different tables or passages of the source. Residues, ends and D or L forms follow the SMILES beside them. No end group written: not given here.

Experiments:
F. moniliforme = conditions: for MCIC: Minimum Complete Inhibitory Concentration, achieving a score of 3 or greater
A. flavus = conditions: for MCIC: Minimum Complete Inhibitory Concentration, achieving a score of 3 or greater
[1] = F. moniliforme, minimum inhibitory concentration, achieving a score of 1 or greater
[2] = A. flavus, minimum inhibitory concentration, achieving a score of 1 or greater
[3] = F. graminearum, minimum inhibitory concentration, achieving a score of 1 or greater

Cecropin A [reference compound]
MCIC (F. moniliforme; F. moniliforme): >80 µg/mL
MIC (F. moniliforme; [1]): 80
MCIC (A. flavus; A. flavus): >80 µg/mL
MIC (A. flavus; [2]): 80
MCIC (F. graminearum): >80 µg/mL
MIC (F. graminearum): 0.06 ng/mL

CC[C@H](C)[C@H](NC(=O)CNC(=O)[C@@H](NC(=O)[C@@H](NC(=O)[C@@H](NC(=O)CNC(=O)[C@@H]1CCCN1C(=O)CNC(=O)[C@H](C)NC(=O)[C@H](CC(C)C)NC(=O)[C@H](C)NC(=O)[C@H](CCCNC(=N)N)NC(=O)[C@@H](NC(=O)[C@H](CCCNC(=N)N)NC(=O)[C@@H](NC(=O)[C@H](CCCNC(=N)N)NC(=O)[C@H](CCCNC(=N)N)NC(=O)[C@@H]1CCCN1C(=O)[C@@H](NC(=O)[C@H](Cc1c[nH]cn1)NC(=O)[C@H](CCCNC(=N)N)NC(=O)[C@@H](NC(=O)[C@H](C)NC(=O)[C@H](CCCNC(=N)N)NC(=O)[C@H](Cc1ccc(O)cc1)NC(=O)[C@@H](NC(=O)[C@H](CCCNC(=N)N)NC(=O)[C@H](CCCNC(=N)N)NC(=O)[C@@H](NC(=O)[C@H](C)NC(=O)[C@H](CCCNC(=N)N)NC(=O)[C@@H](N)CCC(N)=O)C(C)C)[C@@H](C)CC)[C@@H](C)CC)[C@@H](C)CC)[C@@H](C)CC)[C@@H](C)CC)C(C)C)[C@@H](C)O)[C@@H](C)CC)C(=O)N[C@@H](C)C(=O)N[C@@H](Cc1c[nH]cn1)C(=O)N[C@@H](C)C(=O)N[C@@H](CCCCN)C(=O)N[C@@H](CO)C(=O)N[C@@H](CCC(N)=O)C(=O)N[C@@H](CC(C)C)C(=O)N[C@@H](Cc1c[nH]c2ccccc12)C(=O)O [Peptide 3] (H-QRAVRRIYRAIRHIPRRIRIRALAGPGVTIGIAHAKSQLW-OH)
% Inhibition of Growth (P. syringae; concentration 3.00 µg/ml): 0%
% Inhibition of Growth (P. syringae; concentration 6.25 µg/ml): 11%
% Inhibition of Growth (P. syringae; concentration 12.5 µg/ml): 30%
% Inhibition of Growth (P. syringae; concentration 25 µg/ml): 48%
% Inhibition of Growth (P. syringae; concentration 50 µg/ml): 52%
% Inhibition of Growth (E. stewartii; concentration 3.00 µg/ml): 0%
% Inhibition of Growth (E. stewartii; concentration 6.25 µg/ml): 0%
% Inhibition of Growth (E. stewartii; concentration 12.5 µg/ml): 49%
% Inhibition of Growth (E. stewartii; concentration 25 µg/ml): 80%
% Inhibition of Growth (E. stewartii; concentration 50 µg/ml): 100%
MIC (F. moniliforme): 13
MIC (F. graminearum; [3]): 0.013 ng/mL (≈ 0.00281 nM)
% Inhibition of Growth (E. coli; concentration 3.00 µg/ml): 0%
% Inhibition of Growth (E. coli; concentration 6.25 µg/ml): 0%
% Inhibition of Growth (E. coli; concentration 12.5 µg/ml): 0%
% Inhibition of Growth (E. coli; concentration 25 µg/ml): 0%
% Inhibition of Growth (E. coli; concentration 50 µg/ml): 0%

CC[C@H](C)[C@H](NC(=O)[C@H](C)NC(=O)[C@H](CCCNC(=N)N)NC(=O)[C@H](Cc1ccc(O)cc1)NC(=O)[C@@H](NC(=O)[C@H](CCCNC(=N)N)NC(=O)[C@@H](N)CCCNC(=N)N)[C@@H](C)CC)C(=O)N[C@@H](CCCNC(=N)N)C(=O)N[C@@H](Cc1c[nH]cn1)C(=O)N[C@H](C(=O)N1CCC[C@H]1C(=O)N[C@@H](CCCNC(=N)N)C(=O)N[C@@H](CCCNC(=N)N)C(=O)N[C@H](C(=O)N[C@@H](CCCNC(=N)N)C(=O)NCC(=O)N[C@@H](Cc1c[nH]c2ccccc12)C(=O)N[C@@H](CC(C)C)C(=O)N[C@@H](CCCNC(=N)N)C(=O)N[C@@H](CCCNC(=N)N)C(=O)N[C@H](C(=O)NCC(=O)N[C@@H](CCCNC(=N)N)C(=O)N[C@@H](CCCNC(=N)N)C(=O)N[C@H](C(=O)N[C@@H](CCC(=O)O)C(=O)N[C@@H](CCCNC(=N)N)C(=O)N[C@H](C(=O)NCC(=O)N[C@@H](CCC(N)=O)C(=O)N[C@@H](Cc1c[nH]cn1)C(=O)O)C(C)C)[C@@H](C)CC)[C@@H](C)CC)[C@@H](C)CC)[C@@H](C)CC [Peptide 9] (H-RRIYRAIRHIPRRIRGWLRRIGRRIERVGQH-OH)
MIC (F. moniliforme): 10
MIC (A. flavus): 15
MIC (F. graminearum; [3]): 0.01 ng/mL (≈ 0.0025 nM)

CC[C@H](C)[C@H](NC(=O)CNC(=O)[C@@H](NC(=O)[C@@H](NC(=O)[C@@H](NC(=O)CNC(=O)[C@@H]1CCCN1C(=O)CNC(=O)[C@H](C)NC(=O)[C@H](CC(C)C)NC(=O)[C@H](C)NC(=O)[C@H](CCCNC(=N)N)NC(=O)[C@@H](NC(=O)[C@H](CCCCN)NC(=O)[C@@H](NC(=O)[C@H](CCCCN)NC(=O)[C@H](CCCCN)NC(=O)[C@@H]1CCCN1C(=O)[C@@H](NC(=O)[C@H](Cc1c[nH]cn1)NC(=O)[C@H](CCCCN)NC(=O)[C@@H](NC(=O)[C@H](C)NC(=O)[C@H](CCCCN)NC(=O)[C@H](CCC(=O)O)NC(=O)[C@@H](NC(=O)[C@H](CCCCN)NC(=O)[C@H](CCCCN)NC(=O)[C@@H](NC(=O)[C@H](C)NC(=O)[C@H](CCCNC(=N)N)NC(=O)[C@@H](N)CCC(N)=O)C(C)C)[C@@H](C)CC)[C@@H](C)CC)[C@@H](C)CC)[C@@H](C)CC)[C@@H](C)CC)C(C)C)[C@@H](C)O)[C@@H](C)CC)C(=O)N[C@@H](C)C(=O)N[C@@H](Cc1c[nH]cn1)C(=O)N[C@@H](C)C(=O)N[C@@H](CCCCN)C(=O)N[C@@H](CO)C(=O)N[C@@H](CCC(N)=O)C(=O)N[C@@H](CC(C)C)C(=O)N[C@@H](Cc1c[nH]c2ccccc12)C(=O)O [Peptide 4] (H-QRAVKKIEKAIKHIPKKIKIRALAGPGVTIGIAHAKSQLW-OH)
MIC (F. moniliforme; [1]): 17
MIC (F. graminearum; [3]): 0.013 ng/mL (≈ 0.00296 nM)

CC[C@H](C)[C@H](NC(=O)CNC(=O)[C@@H](NC(=O)[C@@H](NC(=O)[C@@H](NC(=O)CNC(=O)[C@@H]1CCCN1C(=O)CNC(=O)[C@H](C)NC(=O)[C@@H](NC(=O)[C@H](C)NC(=O)[C@H](CCCNC(=N)N)NC(=O)[C@H](CCC(N)=O)NC(=O)[C@H](CC(C)C)NC(=O)[C@H](C)NC(=O)[C@H](CCCNC(=N)N)NC(=O)[C@@H](NC(=O)[C@H](CCCCN)NC(=O)[C@H](CCCNC(=N)N)NC(=O)[C@H](CCCNC(=N)N)NC(=O)[C@H](CC(C)C)NC(=O)[C@H](Cc1c[nH]c2ccccc12)NC(=O)[C@H](CCCNC(=N)N)NC(=O)[C@@H](NC(=O)[C@H](CC(C)C)NC(=O)[C@H](CCCCN)NC(=O)[C@H](CCCNC(=N)N)NC(=O)[C@@H](NC(=O)[C@H](CC(C)C)NC(=O)[C@@H](N)CCCCN)[C@@H](C)CC)[C@@H](C)CC)[C@@H](C)CC)C(C)C)C(C)C)[C@@H](C)O)[C@@H](C)CC)C(=O)N[C@@H](C)C(=O)N[C@@H](Cc1c[nH]cn1)C(=O)N[C@@H](C)C(=O)N[C@@H](CCCCN)C(=O)N[C@@H](CO)C(=O)N[C@@H](CCC(N)=O)C(=O)N[C@@H](CC(C)C)C(=O)N[C@@H](Cc1c[nH]c2ccccc12)C(=O)O [Peptide 7] (H-KLIRKLIRWLRRKIRALQRAVAGPGVTIGIAHAKSQLW-OH)
MIC (F. moniliforme; [1]): 10
MIC (A. flavus; [2]): 40
MIC (F. graminearum): 0.01 ng/mL (≈ 0.00229 nM)

IRALQRAVRHPRAIRRIYRGWKKAIRAGPGVTIGIAHAKSQLW [Peptide 6]
MIC (F. moniliforme; [1]): 15
MIC (A. flavus; [2]): 80
MIC (F. graminearum; [3]): 0.01 ng/mL

CC[C@H](C)[C@H](NC(=O)[C@H](C)NC(=O)[C@H](CCCCN)NC(=O)[C@H](CCC(=O)O)NC(=O)[C@@H](NC(=O)[C@H](CCCCN)NC(=O)[C@@H](N)CCCCN)[C@@H](C)CC)C(=O)N[C@@H](CCCCN)C(=O)N[C@@H](Cc1c[nH]cn1)C(=O)N[C@H](C(=O)N1CCC[C@H]1C(=O)N[C@@H](CCCCN)C(=O)N[C@@H](CCCCN)C(=O)N[C@H](C(=O)N[C@@H](CCCCN)C(=O)N[C@@H](CC(C)C)C(=O)N[C@@H](CCCCN)C(=O)N[C@@H](CCCCN)C(=O)N[C@@H](C)C(=O)N[C@@H](CC(C)C)C(=O)N[C@@H](CCCNC(=N)N)C(=O)N[C@@H](C)C(=O)N[C@@H](CC(C)C)C(=O)N[C@@H](C)C(=O)N[C@@H](CCCNC(=N)N)C(=O)N[C@@H](Cc1c[nH]cn1)C(=O)N[C@@H](Cc1c[nH]c2ccccc12)C(=O)N[C@@H](CCCCN)C(=O)O)[C@@H](C)CC)[C@@H](C)CC [Peptide 10] (H-KKIEKAIKHIPKKIKLKKALRALARHWK-OH)
MIC (F. moniliforme; [1]): 7.5
MIC (A. flavus; [2]): 80
MIC (F. graminearum; [3]): 0.01 ng/mL (≈ 0.00296 nM)

Mastoparan [reference compound]
MCIC (F. moniliforme; F. moniliforme): 10 µg/mL
MIC (F. moniliforme; [1]): 2.5
MCIC (A. flavus; A. flavus): 40 µg/mL
MIC (A. flavus; [2]): 20
MCIC (F. graminearum): 10 µg/mL
MIC (F. graminearum): 0.005 ng/mL

CC[C@H](C)[C@H](NC(=O)CNC(=O)[C@@H](NC(=O)[C@@H](NC(=O)[C@@H](NC(=O)CNC(=O)[C@@H]1CCCN1C(=O)CNC(=O)[C@H](C)NC(=O)[C@H](CCCCN)NC(=O)[C@H](Cc1c[nH]c2ccccc12)NC(=O)[C@H](Cc1c[nH]cn1)NC(=O)[C@H](CCCNC(=N)N)NC(=O)[C@H](C)NC(=O)[C@H](CC(C)C)NC(=O)[C@H](C)NC(=O)[C@H](CCCNC(=N)N)NC(=O)[C@H](CC(C)C)NC(=O)[C@H](C)NC(=O)[C@H](CCCCN)NC(=O)[C@H](CCCCN)NC(=O)[C@H](CC(C)C)NC(=O)[C@@H](N)CCCCN)C(C)C)[C@@H](C)O)[C@@H](C)CC)C(=O)N[C@@H](C)C(=O)N[C@@H](Cc1c[nH]cn1)C(=O)N[C@@H](C)C(=O)N[C@@H](CCCCN)C(=O)N[C@@H](CO)C(=O)N[C@@H](CCC(N)=O)C(=O)N[C@@H](CC(C)C)C(=O)N[C@@H](Cc1c[nH]c2ccccc12)C(=O)O [Peptide 2] (H-KLKKALRALARHWKAGPGVTIGIAHAKSQLW-OH)
MIC (F. moniliforme; [1]): 14
MIC (F. graminearum; [3]): 0.014 ng/mL (≈ 0.00411 nM)

CC[C@H](C)[C@H](NC(=O)CNC(=O)[C@@H](NC(=O)[C@@H](NC(=O)[C@@H](NC(=O)CNC(=O)[C@@H]1CCCN1C(=O)CNC(=O)[C@H](C)NC(=O)[C@H](CCCCN)NC(=O)[C@@H](NC(=O)[C@H](CCCCN)NC(=O)[C@H](CCCCN)NC(=O)[C@@H]1CCCN1C(=O)[C@@H](NC(=O)[C@H](Cc1c[nH]cn1)NC(=O)[C@H](CCCCN)NC(=O)[C@@H](NC(=O)[C@H](C)NC(=O)[C@H](CCCCN)NC(=O)[C@H](CCC(=O)O)NC(=O)[C@@H](NC(=O)[C@H](CCCCN)NC(=O)[C@@H](N)CCCCN)[C@@H](C)CC)[C@@H](C)CC)[C@@H](C)CC)[C@@H](C)CC)C(C)C)[C@@H](C)O)[C@@H](C)CC)C(=O)N[C@@H](C)C(=O)N[C@@H](Cc1c[nH]cn1)C(=O)N[C@@H](C)C(=O)N[C@@H](CCCCN)C(=O)N[C@@H](CO)C(=O)N[C@@H](CCC(N)=O)C(=O)N[C@@H](CC(C)C)C(=O)N[C@@H](Cc1c[nH]c2ccccc12)C(=O)O [Peptide 1] (H-KKIEKAIKHIPKKIKAGPGVTIGIAHAKSQLW-OH)
MIC (F. moniliforme; [1]): 17
MIC (F. graminearum; [3]): 0.017 ng/mL (≈ 0.00487 nM)
